Data as given in patent US20140329905A1, “HISTONE DEACETYLASE 10-INHIBITOR CO-TREATMENT IN CANCER” (Deutsches Krebsforschungszentrum, priority 2011, published 2014).
Read-outs that look alike come from different tables or passages of the source. Peptide text beside a SMILES is read from it. * marks the point of attachment. Cbz = O=C(OCc1ccccc1)*; CH2F = FC*

Columns and labels:
[1] = tested on: BE(2)-C cells; experiment: Caspase-3-like protease (DEVD-ase) activity assay; format: cell-based, human; conditions: 6 d after HDAC10 siRNA; z-VAD 20 μM, 3-MA 2 mM
Method: Caspase-3-like protease activity assay. Caspase-3-like protease activity was measured with the Caspase-3 Fluorometric Assay (BioVision) according to the manufacturer's protocol modified as described previously (Oehme et al. (2006), op. cit.). For cell death detection adherent as well as floating cells were collected.

[2] = tested on: BE(2)-C cells; experiment: Acridine orange FACS quantification of acidic lysosomes; format: cell-based, human; conditions: for accumulation of acidic lysosomes (red fluorescence) by a panel of HDAC inhibitors: FIG. 1B, each inhibitor at its applied concentration (Table 1)
Method: For quantification of acidic lysosomes, the amount of green respectively red fluorescence was determined, since the acidification of (auto-)lysosomes causes a shift from green to red fluorescence. […] Therefore, the cytoplasm and nucleolus glow bright green, whereas acidic compartments shine bright red. By comparing the mean red-to-green fluorescence ratio within different cell populations, detection and quantification of the acidic compartment is possible. Cells were stained with phenol red-free medium containing 1 μg/ml acridine orange (Sigma) at 37° C. for 30 min, collected and resuspended in 300 μl phenolred-free medium for FACS analysis.

[3] = tested on: Neuroblastoma cells, medulloblastoma cells (BE(2)-C, Kelly, IMR32, Med8A); experiment: WST-1 metabolic activity assay, tumor cells; format: cell-based, human; conditions: FIG. 13E; bufexamac 30 μM 6 d, co-treated with low-dose doxorubicin 72 h before assay
Method: (§1) WST-1 Assay. Metabolic activity was determined using the colorimetric WST-1 assay kit from Roche (Mannheim, Germany) as described in the manufacturer's manual.

[4] = tested on: BE(2)-C cells; experiment: WST-1 metabolic activity assay; format: cell-based, human
Method: as §1

[5] = tested on: astrocytes; experiment: Acridine orange FACS quantification of acidic lysosomes; format: cell-based; conditions: FIG. 1D; human astrocytes, compared with neuroblastoma cells
Method: For quantification of acidic lysosomes, the amount of green respectively red fluorescence was determined, since the acidification of (auto-)lysosomes causes a shift from green to red fluorescence. Acridine orange accumulates in lysosomal particles and the quenching of its fluorescence correlates with the DpH across the lysosomal membrane (Moriyama, Y, Takano, T and Ohkuma, S, (1982) Acridine orange as a fluorescent probe for lysosomal proton pump. J Biochem 92: 1333-6). Therefore, the cytoplasm and nucleolus glow bright green, whereas acidic compartments shine bright red. By comparing the mean red-to-green fluorescence ratio within different cell populations, detection and quantification of the acidic compartment is possible. Cells were stained with phenol red-free medium containing 1 μg/ml acridine orange (Sigma) at 37° C. for 30 min, collected and resuspended in 300 μl phenolred-free medium for FACS analysis. The green (510-530 nm) and the red (>650 nm) fluorescent emission of living cells, stimulated with blue laser (488 nm), were measured with FACSCalibur (Becton Dickinson, San José, Calif.) and analyzed with CellQuest Pro.

[6] = molecular target: T1, HDAC10 (Homo sapiens, UniProt Q969S8); conditions: read-out: IC50 HDAC10 from literature; cited from earlier work
T1 construct: Reaction Biology Corporation
T1 sequence (Q969S8 1-669): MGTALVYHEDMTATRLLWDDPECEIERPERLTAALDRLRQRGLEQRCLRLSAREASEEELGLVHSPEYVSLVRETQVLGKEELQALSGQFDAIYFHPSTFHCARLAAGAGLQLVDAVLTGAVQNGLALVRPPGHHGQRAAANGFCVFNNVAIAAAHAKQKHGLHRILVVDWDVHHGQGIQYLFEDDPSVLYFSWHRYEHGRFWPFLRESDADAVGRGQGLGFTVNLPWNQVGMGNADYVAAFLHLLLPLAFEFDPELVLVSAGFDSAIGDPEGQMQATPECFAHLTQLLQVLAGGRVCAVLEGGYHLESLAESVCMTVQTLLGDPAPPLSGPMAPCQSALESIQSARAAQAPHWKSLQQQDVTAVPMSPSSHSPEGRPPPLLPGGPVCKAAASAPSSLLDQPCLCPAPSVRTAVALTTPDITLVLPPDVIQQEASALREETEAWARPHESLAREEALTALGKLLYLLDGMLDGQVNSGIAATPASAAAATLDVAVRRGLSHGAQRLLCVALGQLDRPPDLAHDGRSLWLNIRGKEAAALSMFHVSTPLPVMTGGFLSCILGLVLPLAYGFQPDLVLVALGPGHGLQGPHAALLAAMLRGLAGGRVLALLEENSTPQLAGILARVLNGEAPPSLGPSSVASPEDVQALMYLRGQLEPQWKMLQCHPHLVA

[7] = tested on: BE(2)-C cells; experiment: ROS detection with CM-H2DCFDA by flow cytometry; format: cell-based, human; conditions: for effect on ROS production by HDAC10 targeting: 72 h after HDAC10 siRNA transfection
Method: ROS generation was quantified using CM-H2DCFDA (Molecular Probes) according to the manufacturer's instructions. Cells were incubated for 20 min with 5 μM dye and fluorescence intensity was measured with FACSCalibur and analyzed with CellQuest Pro.

[8] = tested on: Kelly cells; experiment: WST-1 metabolic activity assay; format: cell-based, human; conditions: NAC on day 4 and 5, measured day 6
Method: as §1

[9] = molecular target: T1, HDAC10; experiment: In vitro HDAC10 activity assay by Reaction Biology Corporation; format: biochemical; conditions: read-out: IC50 HDAC10 from RBC
From the text: The inhibitory activity of compounds toward HDAC10 was investigated by Reaction Biology Corporation (Malvern, Pa., USA).

[10] = tested on: IMR32 cells; experiment: Cell death by trypan blue staining; format: cell-based, human; conditions: FIG. 13A, 0.01, 0.05, 0.1 μg/ml, 24, 48, 72 h, among BE(2)-C, Kelly
Method: (§2) Viability assay. Trypsinized cells were pooled with corresponding supernatant, centrifuged and resuspended in 1.5 ml cell culture media. Cell viability was measured by automated trypan blue staining with Vi-Cell XR Cell Viability Analyzer from Beckman Coulter (Krefeld, Germany).

[11] = tested on: BE(2)-C cells; experiment: Cell death by trypan blue staining; format: cell-based, human; conditions: FIG. 13A; 0.01, 0.05, 0.1 μg/ml; 24, 48, 72 h; among BE(2)-C, Kelly, IMR32
Method: as §2

[12] = tested on: BE(2)-C cells; experiment: Western blot of p62 protein levels (autophagic flux); format: cell-based, human; conditions: FIG. 13C; high-dose doxorubicin 0.5 μg/ml, 48 h
Method: Western blot analysis was performed as described previously (Oehme et al. (2009), op. cit.). The following antibodies were used: anti-HDAC10 (Sigma), anti-LC3 (Sigma), anti-HDAC6 (Cell Signaling), anti-p62/SQSTM1 (MLB), anti-Hsc70 (Santa Cruz), anti-FLAG-M2 (Sigma) anti-GAPDH (Millipore), anti-Ac-Lysine (rabbit, Cell Signaling) and anti-β-Actin (clone AC-15, Sigma). β-Actin expression served as loading control. Ratios were calculated with the Bio-1D (Version 12.10a) Software. Protein extracts from primary neuroblastoma tumors from patients with the following characteristics were used: NB#1: […], stage 1, MYCN single copy. NB#2: […], stage 1, MYCN single copy. NB#3: […], stage 4, MYCN single copy. NB#4: […], stage 4, MYCN single copy.

SMILES: Cn1cnc(=N)c2[nH]cnc21 [3-MA]
- effect on HDAC10-knockdown mediated apoptosis (caspase-3 like activity) [1]: did not affect the induction of cell death upon targeting of HDAC10

SMILES: CO/C1=C\C(C)=C\[C@@H](C)[C@@H](O)[C@@H](C)C/C(C)=C/C=C/[C@H](OC)[C@@H]([C@@H](C)[C@@H](O)[C@H](C)[C@@]2(O)C[C@@H](O)[C@H](C)[C@@H](C(C)C)O2)OC1=O [Bafilomycin A1]
- effect on TSA-induced shift to red fluorescence ([2]; FIG. 2, co-treatment Baf.A 10 nM with TSA 75 nM): inhibited the TSA-induced shift to red fluorescence
- effect on lysosome acidification induced by HDAC10 knockdown ([2]; FIG. 4A, Baf. A 10 nM, HDAC10 siRNA): blocked lysosome acidification induced by HDAC10 knockdown

SMILES: CCCCOc1ccc(CC(=O)NO)cc1 [Bufexamac, 2-(4-butoxyphenyl)-N-hydroxyacetamide]
- metabolic activity (WST-1) [3]: significantly decreased metabolic activity
- effect of bufexamac in NB cells compared to the knockdown of HDAC10 expression ([4]; BE(2)C cells): rather low
- metabolic activity (WST-1) ([4]; FIG. 9E, bufexamac 100 μM 3 days, co-treated with doxorubicin 0.1 μg/ml 24 h before assay): strongly reduced metabolic activity
- shift to red fluorescence (acidic lysosomes) [5]: very moderate shift to red fluorescence
- IC50 [6]: 12.3 µM
- accumulation of acidic lysosomes (red fluorescence) by a panel of HDAC inhibitors ([2]; BE(2)-C): significant increase in red fluorescence

SMILES: CCN(CC)CCCC(C)Nc1ccnc2cc(Cl)ccc12 (centres unmarked) [Chloroquine]
- induction of acidic lysosomes and late endosomes ([2]; FIG. 2, FIG. 5C, BE(2)-C, chloroquine 25 μM, rapamycin 100 nM): served as positive controls for the induction of acidic lysosomes and late endosomes

SMILES: CC(=O)N(O)CCCCCNC(=O)CCC(=O)N(O)CCCCCNC(=O)CCC(=O)N(O)CCCCCN [DFO]
- effect on ROS production by HDAC10 targeting [7]: inhibited

SMILES: CC(=O)N[C@@H](CS)C(=O)O [NAC]
- viability (metabolic activity) upon HDAC10 knockdown [8]: restored viability of NB cells
- viability (metabolic activity) upon HDAC10 knockdown ([4]; BE(2)-C, NAC on day 4 and 5, measured day 6): restored viability of NB cells
- effect on ROS production by HDAC10 targeting [7]: inhibited

SMILES: CN(C)Cc1c(C(=O)NCCOc2ccc(C(=O)NO)cc2)oc2ccccc12 [PCI-24781, 3-(dimethylaminomethyl)-N-[2-[4-(hydroxycarbamoyl)-phenoxy]ethyl]-1-benzofuran-2-carboxamide]
- accumulation of acidic lysosomes (red fluorescence) by a panel of HDAC inhibitors ([2]; BE(2)-C): significant increase in red fluorescence

SMILES: COc1ccc(Cn2ccc3ccc(C(=O)NO)cc32)cc1 [PCI-34051]
- accumulation of acidic lysosomes (red fluorescence) by a panel of HDAC inhibitors ([2]; BE(2)-C): did not

SMILES: Cc1[nH]c2ccccc2c1CCNCc1ccc(/C=C/C(=O)NO)cc1 [Panobinostat (LBH589), (2E)-N-hydroxy-3-[4-({[2-(2-methyl-1H-indol-3-yl)ethyl]amino}methyl)phenyl]acrylamide]
- accumulation of acidic lysosomes (red fluorescence) by a panel of HDAC inhibitors ([2]; BE(2)-C): significant increase in red fluorescence

SMILES: CC(C=CC(=O)NO)=CC(C)C(=O)c1ccc(N(C)C)cc1 (centres unmarked) [TSA, 7-[4-(dimethylamino)phenyl]-N-hydroxy-4,6-dimethyl-7-oxohepta-2,4-dienamide]
- accumulation of acidic lysosomes (red fluorescence) by a panel of HDAC inhibitors ([2]; BE(2)-C): significant increase in red fluorescence
- ROS generation ([7]; TSA 75 nM, 24 h): TSA-induced ROS generation

SMILES: O=C(CCCCCCC(=O)Nc1ccc([C@H]2O[C@@H](CSc3nc(-c4ccccc4)c(-c4ccccc4)o3)C[C@@H](c3ccc(CO)cc3)O2)cc1)NO [Tubacin]
- accumulation of acidic lysosomes (red fluorescence) by a panel of HDAC inhibitors ([2]; BE(2)-C): did not increase the amount of red fluorescent cells

SMILES: CCCC(CCC)C(=O)O [VPA, valproic acid]
- IC50 [9]: > 10000 µM
- accumulation of acidic lysosomes (red fluorescence) by a panel of HDAC inhibitors ([2]; BE(2)-C): did not increase the amount of red fluorescent cells

SMILES: O=C(CCCCCCC(=O)Nc1ccccc1)NO [Vorinostat (SAHA), N-hydroxy-N′-phenyl-octanediamide]
- accumulation of acidic lysosomes (red fluorescence) by a panel of HDAC inhibitors ([2]; BE(2)-C): significant increase in red fluorescence

SMILES: COc1cccc2c1C(=O)c1c(O)c3c(c(O)c1C2=O)C[C@@](O)(C(=O)CO)C[C@@H]3O[C@H]1C[C@H](N)[C@H](O)[C@H](C)O1 [doxorubicin]
- sensitivity towards doxorubicin treatment (cell death, % trypan blue positive) [10]: highest sensitivity
- sensitivity towards doxorubicin treatment (cell death, % trypan blue positive) [11]: highest resistance
- autophagic flux, measurable by p62 degradation [12]: enhanced autophagic flux

SMILES: CN1C(=O)C(Cc2c[nH]c3ccccc23)NC1=S (centres unmarked) [necrostatin]
- viability (metabolic activity) upon HDAC10 knockdown ([4]; 6 d post-transfection, necrostatin 50 μM in combination with z-VAD 20 μM): completely rescue

SMILES: CC(NC(=O)C(NC(=O)OCc1ccccc1)C(C)C)C(=O)NC(CC(=O)O)C(=O)CF (stereo not drawn) [zVAD] (Cbz-Val-Ala-Asp-CH2F; configuration not given here)
- viability (metabolic activity) upon HDAC10 knockdown ([4]; 6 d post-transfection, z-VAD 20 μM on day 4 and 5): partly restored viability
- effect on HDAC10-knockdown mediated apoptosis (caspase-3 like activity) [1]: abolished HDAC10-knockdown mediated induction of apoptosis
